According to US4746658A, “2-phenyl-imidazo-pyrazines, -pyridazines and -triazines” (Dr. Karl Thomae GmbH, priority 1983, dated 1988):

System: anesthetized cat
Assay: Determination of the effect on blood pressure and of the positive inotropic effect in the anesthetized cat
Type: in vivo
Details: injected into vena femoralis, average, at least 3 cats; for Effect on blood pressure in mm Hg (first figure of pair) / Effect on blood pressure in mm Hg (second figure of pair): arterial pressure in aorta abdominalis
Description: The above pharmacological properties were ascertained for the compounds of the present invention by the standard pharmacological test method described below, and the results of this test for two representative species of the genus are shown in the table below, where
Determination of the effect on blood pressure and of the positive inotropic effect in the anesthetized cat
The tests were carried out on cats which had been anesthetized with sodium pentobarbital (40 mg/kg i.p.). The animals breathed spontaneously. The arterial blood pressure was measured in the aorta abdominalis with a Statham pressure transducer (P 23 Dc). In order to determine the positive inotropic activity, the pressure in the left ventricle was measured with a catheter-tip manometer (Millar PC-350 A). From this the contractility parameter dp/dt was obtained, using an analog differentiator. The test compounds were injected into a vena femoralis. Polydiol 200 was used as the solvent. Each compound was tested on at least 3 cats.

| Compound | Effect on blood pressure in mm Hg (first figure of pair) (0.6 mg/kg) | Effect on blood pressure in mm Hg (second figure of pair) (0.6 mg/kg) | Duration of activity (half life) (0.6 mg/kg) | Increase in dp/dtmax in % (0.6 mg/kg) | Effect on blood pressure in mm Hg (first figure of pair) (0.3 mg/kg) | Effect on blood pressure in mm Hg (second figure of pair) (0.3 mg/kg) | Duration of activity (half life) (0.3 mg/kg) | Increase in dp/dtmax in % (0.3 mg/kg) |
| --- | --- | --- | --- | --- | --- | --- | --- | --- |
| COc1cc(OS(C)(=O)=O)ccc1-c1nc2nccnc2[nH]1 [A, 2-(2-methoxy-4-methanesulfonyloxy-phenyl)-imidazo[4,5-b]pyrazine] | -24 mm Hg | -21 mm Hg | 20 min | 54% |  |  |  |  |
| COc1cc(OS(C)(=O)=O)ccc1-c1nc2cnncc2[nH]1 [B, 2-(2-Methoxy-4-methanesulfonyloxy-phenyl)-imidazo[4,5-d]pyridazine] |  |  |  |  | -31 mm Hg | -18 mm Hg | 38 min | 36% |
